Measured values taken from ChEMBL document CHEMBL1201862, “PubChem BioAssay data set” (2004).
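Five concentrations, 48 hours, 96-well plates. GI50: concentration for 50% inhibition of growth.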 Active and inactive are the calls of the source. No stated cut-off is given here; in the data, active = GI50 up to about 1.1 µM and inactive = higher.

Key:
Test in all cases: NCI anticancer screen, dose series, 48 h
786-0 = test system: 786-0
A498 = test system: A498
A549 = test system: A549
ACHN = test system: ACHN
BT-549 = test system: BT-549
CAKI-1 = test system: CAKI-1
CCRF-CEM = test system: CCRF-CEM
COLO 205 = test system: COLO 205
DU-145 = test system: DU-145
EKVX = test system: EKVX
HCC 2998 = test system: HCC 2998
HCT-116 = test system: HCT-116
HCT-15 = test system: HCT-15
HOP-62 = test system: HOP-62
HOP-92 = test system: HOP-92
HT-29 = test system: HT-29
Hs-578T = test system: Hs-578T
IGROV-1 = test system: IGROV-1
K562 = test system: K562
KM12 = test system: KM12
M14 = test system: M14
MCF7 = test system: MCF7
MDA-MB-231 = test system: MDA-MB-231
MDA-MB-435 = test system: MDA-MB-435
MDA-N = test system: MDA-N
MOLT-4 = test system: MOLT-4
Malme-3M = test system: Malme-3M
NCI-H226 = test system: NCI-H226
NCI-H23 = test system: NCI-H23
NCI-H460 = test system: NCI-H460
NCI-H522 = test system: NCI-H522
NCI/ADR-RES = test system: NCI/ADR-RES
OVCAR-3 = test system: OVCAR-3
OVCAR-4 = test system: OVCAR-4
OVCAR-5 = test system: OVCAR-5
OVCAR-8 = test system: OVCAR-8
PC-3 = test system: PC-3
RXF 393 = test system: RXF 393
SF-268 = test system: SF-268
SF-295 = test system: SF-295
SF-539 = test system: SF-539
SK-MEL-28 = test system: SK-MEL-28
SK-MEL-5 = test system: SK-MEL-5
SK-OV-3 = test system: SK-OV-3
SN12C = test system: SN12C
SNB-19 = test system: SNB-19
SNB-75 = test system: SNB-75
SR = test system: SR
SW-620 = test system: SW-620
T47D = test system: T47D
TK-10 = test system: TK-10
U-251 = test system: U-251
UACC-257 = test system: UACC-257
UACC-62 = test system: UACC-62
UO-31 = test system: UO-31
HL-60 = test system: HL-60
LOX IMVI = test system: LOX IMVI
RPMI-8226 = test system: RPMI-8226
SK-MEL-2 = test system: SK-MEL-2

## COc1ccc(C(=O)/C=C/c2ccc(OCC#N)cc2)cc1
786-0
  GI50: 42.2 µM (inactive)
A498
  GI50: 30.6 µM (inactive)
A549
  GI50: 28.5 µM (inactive)
ACHN
  GI50: 36.1 µM (inactive)
BT-549
  GI50: 17.5 µM (inactive)
CAKI-1
  GI50: 19.5 µM (inactive)
CCRF-CEM
  GI50: 23.2 µM (inactive)
COLO 205
  GI50: 21.7 µM (inactive)
DU-145
  GI50: 30 µM (inactive)
EKVX
  GI50: 74.5 µM (inactive)
HCC 2998
  GI50: 17.3 µM (inactive)
HCT-116
  GI50: 12.2 µM (inactive)
HCT-15
  GI50: 23.3 µM
HOP-62
  GI50: 53.1 µM (inactive)
HOP-92
  GI50: 29 µM (inactive)
HT-29
  GI50: 33.3 µM (inactive)
Hs-578T
  GI50: 27.7 µM (inactive)
IGROV-1
  GI50: > 10 µM (inactive)
K562
  GI50: 28.2 µM (inactive)
KM12
  GI50: 17.5 µM (inactive)
M14
  GI50: 20 µM (inactive)
MCF7
  GI50: 15.8 µM (inactive)
MDA-MB-231
  GI50: 23.4 µM (inactive)
MDA-MB-435
  GI50: 24.7 µM (inactive)
MDA-N
  GI50: > 10 µM (inactive)
MOLT-4
  GI50: 23.3 µM (inactive)
Malme-3M
  GI50: 20.5 µM (inactive)
NCI-H226
  GI50: 24.7 µM (inactive)
NCI-H23
  GI50: 21.3 µM (inactive)
NCI-H460
  GI50: 27.3 µM (inactive)
NCI-H522
  GI50: 18.1 µM (inactive)
NCI/ADR-RES
  GI50: 20.9 µM (inactive)
OVCAR-3
  GI50: 30.8 µM (inactive)
OVCAR-4
  GI50: 32.7 µM (inactive)
OVCAR-5
  GI50: > 100 µM (inactive)
OVCAR-8
  GI50: 34.5 µM (inactive)
PC-3
  GI50: 36.6 µM (inactive)
RXF 393
  GI50: 16.3 µM (inactive)
SF-268
  GI50: 34.1 µM (inactive)
SF-295
  GI50: 41 µM (inactive)
SF-539
  GI50: 20.4 µM (inactive)
SK-MEL-28
  GI50: 17.1 µM (inactive)
SK-MEL-5
  GI50: 15.1 µM (inactive)
SK-OV-3
  GI50: 43.3 µM (inactive)
SN12C
  GI50: 19.9 µM (inactive)
SNB-19
  GI50: 26.2 µM (inactive)
SNB-75
  GI50: 77.1 µM (inactive)
SR
  GI50: 22.7 µM (inactive)
SW-620
  GI50: 17.3 µM (inactive)
T47D
  GI50: 14.9 µM (inactive)
TK-10
  GI50: 38.3 µM (inactive)
U-251
  GI50: 17.4 µM (inactive)
UACC-257
  GI50: 38.9 µM (inactive)
UACC-62
  GI50: > 10 µM (inactive)
UO-31
  GI50: 16.6 µM (inactive)

## O=c1[nH][nH]c(=O)n1Cc1ccccc1
786-0
  GI50: > 100 µM (inactive)
A498
  GI50: > 100 µM (inactive)
A549
  GI50: > 100 µM (inactive)
BT-549
  GI50: > 100 µM (inactive)
CAKI-1
  GI50: > 100 µM (inactive)
CCRF-CEM
  GI50: > 100 µM (inactive)
COLO 205
  GI50: > 100 µM (inactive)
DU-145
  GI50: > 100 µM (inactive)
EKVX
  GI50: > 100 µM (inactive)
HCC 2998
  GI50: > 100 µM (inactive)
HCT-116
  GI50: > 100 µM (inactive)
HCT-15
  GI50: > 100 µM
HL-60
  GI50: > 100 µM (inactive)
HT-29
  GI50: > 100 µM (inactive)
Hs-578T
  GI50: > 100 µM (inactive)
K562
  GI50: > 100 µM (inactive)
KM12
  GI50: > 100 µM (inactive)
LOX IMVI
  GI50: > 100 µM (inactive)
M14
  GI50: > 100 µM (inactive)
MCF7
  GI50: > 100 µM (inactive)
MDA-MB-231
  GI50: > 100 µM (inactive)
MDA-MB-435
  GI50: > 100 µM (inactive)
MDA-N
  GI50: > 100 µM (inactive)
MOLT-4
  GI50: > 100 µM (inactive)
Malme-3M
  GI50: > 100 µM (inactive)
NCI-H226
  GI50: > 100 µM (inactive)
NCI-H23
  GI50: > 100 µM (inactive)
NCI-H460
  GI50: > 100 µM (inactive)
NCI-H522
  GI50: > 100 µM (inactive)
NCI/ADR-RES
  GI50: > 100 µM (inactive)
OVCAR-3
  GI50: > 100 µM (inactive)
OVCAR-4
  GI50: > 100 µM (inactive)
OVCAR-5
  GI50: > 100 µM (inactive)
OVCAR-8
  GI50: > 100 µM (inactive)
PC-3
  GI50: > 100 µM (inactive)
RPMI-8226
  GI50: > 100 µM (inactive)
RXF 393
  GI50: > 100 µM (inactive)
SF-268
  GI50: > 100 µM (inactive)
SF-539
  GI50: > 100 µM (inactive)
SK-MEL-28
  GI50: > 100 µM (inactive)
SK-MEL-2
  GI50: > 100 µM (inactive)
SK-MEL-5
  GI50: > 100 µM (inactive)
SK-OV-3
  GI50: > 100 µM (inactive)
SN12C
  GI50: > 100 µM (inactive)
SNB-19
  GI50: > 100 µM (inactive)
SNB-75
  GI50: > 100 µM (inactive)
SR
  GI50: > 100 µM (inactive)
SW-620
  GI50: > 100 µM (inactive)
T47D
  GI50: > 100 µM (inactive)
TK-10
  GI50: > 100 µM (inactive)
U-251
  GI50: > 100 µM (inactive)
UACC-257
  GI50: > 100 µM (inactive)
UACC-62
  GI50: > 100 µM (inactive)
UO-31
  GI50: > 100 µM (inactive)

## C[N+](C)(C)c1nc(N)nc2c1ncn2C1OC(CO)C(O)C1O (stereo not given)
786-0
  GI50: > 100 µM (inactive)
A498
  GI50: > 100 µM (inactive)
A549
  GI50: > 100 µM (inactive)
ACHN
  GI50: > 100 µM (inactive)
BT-549
  GI50: > 100 µM (inactive)
CAKI-1
  GI50: > 100 µM (inactive)
CCRF-CEM
  GI50: 3.08 µM (inactive)
COLO 205
  GI50: > 100 µM (inactive)
DU-145
  GI50: > 100 µM (inactive)
EKVX
  GI50: > 100 µM (inactive)
HCC 2998
  GI50: > 100 µM (inactive)
HCT-116
  GI50: > 100 µM (inactive)
HCT-15
  GI50: > 100 µM
HOP-62
  GI50: > 100 µM (inactive)
HOP-92
  GI50: > 100 µM (inactive)
HT-29
  GI50: > 100 µM (inactive)
Hs-578T
  GI50: > 100 µM (inactive)
IGROV-1
  GI50: > 100 µM (inactive)
K562
  GI50: > 100 µM (inactive)
KM12
  GI50: > 100 µM (inactive)
LOX IMVI
  GI50: > 100 µM (inactive)
M14
  GI50: > 100 µM (inactive)
MCF7
  GI50: > 100 µM (inactive)
MDA-MB-231
  GI50: > 100 µM (inactive)
MDA-MB-435
  GI50: > 100 µM (inactive)
MDA-N
  GI50: > 100 µM (inactive)
MOLT-4
  GI50: > 100 µM (inactive)
Malme-3M
  GI50: > 100 µM (inactive)
NCI-H23
  GI50: > 100 µM (inactive)
NCI-H460
  GI50: > 100 µM (inactive)
NCI-H522
  GI50: > 100 µM (inactive)
NCI/ADR-RES
  GI50: > 100 µM (inactive)
OVCAR-3
  GI50: > 100 µM (inactive)
OVCAR-4
  GI50: > 100 µM (inactive)
OVCAR-5
  GI50: > 100 µM (inactive)
OVCAR-8
  GI50: > 100 µM (inactive)
PC-3
  GI50: > 100 µM (inactive)
RPMI-8226
  GI50: > 100 µM (inactive)
RXF 393
  GI50: > 100 µM (inactive)
SF-268
  GI50: > 100 µM (inactive)
SF-539
  GI50: > 100 µM (inactive)
SK-MEL-28
  GI50: > 100 µM (inactive)
SK-MEL-2
  GI50: > 100 µM (inactive)
SK-MEL-5
  GI50: > 100 µM (inactive)
SK-OV-3
  GI50: > 100 µM (inactive)
SN12C
  GI50: > 100 µM (inactive)
SNB-19
  GI50: > 100 µM (inactive)
SNB-75
  GI50: > 100 µM (inactive)
SR
  GI50: > 100 µM (inactive)
SW-620
  GI50: > 100 µM (inactive)
T47D
  GI50: > 100 µM (inactive)
TK-10
  GI50: > 100 µM (inactive)
U-251
  GI50: > 100 µM (inactive)
UACC-257
  GI50: > 100 µM (inactive)
UACC-62
  GI50: > 100 µM (inactive)
UO-31
  GI50: > 100 µM (inactive)
